According to ChEMBL document CHEMBL1146645, “Synthesis and structure-activity relationships of 3-substituted 1,4-dihydro-4-oxo-1-(2-thiazolyl)-1,8-naphthyridines as novel antitumor agents” (Bioorg Med Chem Lett, 2004):
≈ marks a conversion by molar mass, not a printed value.

Legend:
P388 = test: In vitro cytotoxicity was measured towards murine lymphocytic leukemia P388 cells; assay type: functional, cell-based; settings: Mus musculus
Escherichia coli = test: In vitro antibacterial activity of compound towards Escherichia coli NIHJ JC-2; assay type: functional
Staphylococcus aureus = test: In vitro antibacterial activity towards Staphylococcus aureus 209 JC-1; assay type: functional
Mus musculus [1] = test: In vivo antitumor activity against murine P388 leukemia measured as median survival of treated mice to that of control (T/C) at a dose of […]; assay type: functional
Mus musculus [2] = test: In vivo antitumor activity against murine P388 leukemia measured as median survival of treated mice to that of control (T/C) at a dose of 50 mg/kg; assay type: functional
MKN-45 = test: Cytotoxic activity against human MKN45 stomach tumor cell line; assay type: functional, cell-based
WiDr = test: Cytotoxic activity against human WiDr colon tumor cell line; assay type: functional, cell-based
KB = test: Cytotoxic activity against human KB nasopha tumor cell line; assay type: functional, cell-based
HMV-2 cell line = test: Cytotoxic activity against human HMV-2 melanoma tumor cell line; assay type: functional, cell-based
A-427 = test: cells; assay type: functional, cell-based; settings: Homo sapiens
Description: Cytotoxic activity against human A-427 lung tumor cell line

AZ-521 cell line = test: cells; assay type: functional, cell-based; settings: Homo sapiens
Description: Cytotoxic activity against human AZ-521 stomach tumor cell line

C-33-A = test: Cytotoxic activity against human C-33A cervix tumor cell line; assay type: functional, cell-based

SMILES | IC50 (P388) | MIC (Escherichia coli) | MIC (Staphylococcus aureus) | T/C (Mus musculus [1]) | T/C (Mus musculus [1]; dose […]) | T/C (Mus musculus [2]) | IC50 (MKN-45) | IC50 (WiDr) | IC50 (KB) | IC50 (HMV-2 cell line) | IC50 (A-427) | IC50 (AZ-521 cell line) | IC50 (C-33-A) | T/C (Mus musculus [1]; dose […] mg/kg, […])
NC1CCN(c2nc3c(cc2F)c(=O)c(O)cn3-c2nccs2)C1 (stereo not given) | 0.168 µg/mL (≈ 0.484 µM) | 0.78 µg/mL (≈ 2.25 µM) | 50 µg/mL (≈ 144 µM) |  |  |  |  |  |  |  |  |  |  | 
CCOC(=O)c1cn(-c2nccs2)c2nc(N3CCC(N)C3)c(F)cc2c1=O (stereo not given) | 0.136 µg/mL (≈ 0.337 µM) | 12.5 µg/mL (≈ 31 µM) | 50 µg/mL (≈ 124 µM) |  |  |  |  |  |  |  |  |  |  | 
NC(=O)c1cn(-c2nccs2)c2nc(N3CCC(N)C3)c(F)cc2c1=O (stereo not given) | 0.269 µg/mL (≈ 0.718 µM) | > 100 µg/mL | > 100 µg/mL |  |  |  |  |  |  |  |  |  |  | 
NC1CCN(c2nc3c(cc2F)c(=O)c(C(=O)O)cn3-c2nccs2)C1 (stereo not given) | 0.0211 µg/mL (≈ 0.0562 µM) | 0.025 µg/mL (≈ 0.0666 µM) | 0.39 µg/mL (≈ 1.04 µM) | 150% | 213% | >375% |  |  |  |  |  |  |  | 
CN[C@H]1CN(c2nc3c(cc2F)c(=O)c(C=O)cn3-c2nccs2)C[C@@H]1OC | 0.0309 µg/mL (≈ 0.0766 µM) | 100 µg/mL (≈ 248 µM) | 12.5 µg/mL (≈ 31 µM) | 188% | 250% | 325% | 0.144 µg/mL (≈ 0.357 µM) | 0.264 µg/mL (≈ 0.654 µM) | 0.179 µg/mL (≈ 0.444 µM) | 0.214 µg/mL (≈ 0.53 µM) | 0.0749 µg/mL (≈ 0.186 µM) | 0.0307 µg/mL (≈ 0.0761 µM) | 0.161 µg/mL (≈ 0.399 µM) | 
NC1CCN(c2nc3c(cc2F)c(=O)c(Cc2ccccc2)cn3-c2nccs2)C1 (stereo not given) | 0.0178 µg/mL (≈ 0.0422 µM) | 100 µg/mL (≈ 237 µM) | 50 µg/mL (≈ 119 µM) |  |  |  |  |  |  |  |  |  |  | 
COc1cc([C@@H]2c3cc4c(cc3[C@@H](O[C@@H]3O[C@@H]5CO[C@@H](C)O[C@H]5[C@H](O)[C@H]3O)[C@H]3COC(=O)[C@H]23)OCO4)cc(OC)c1O [ETOPOSIDE] |  |  |  | 175% |  | >375% | 0.49 µg/mL (≈ 0.833 µM) | 1.63 µg/mL (≈ 2.77 µM) | 0.201 µg/mL (≈ 0.342 µM) | 0.298 µg/mL (≈ 0.506 µM) |  | 0.08 µg/mL (≈ 0.136 µM) | 0.084 µg/mL (≈ 0.143 µM) | 250%
